The assay relates to PD-L1 on CD34+ cells. The experiment in a line: Prostaglandin library screening and FACS of PD-L1 on human CD34+ cells. The assay is classed as cell-based. Particulars: for PD-L1 expression by FACS analysis: CD34+ cells, 10 μM pulsed at 24 and 48 hours. An excerpt: FIGS. 17A-17J show prostaglandins enhance PD-L1 expression on human CD34^+ cells. (FIG. 17A-17B) Results of screening of a prostaglandin small molecule library tested for the ability to upregulate PD-L1 (MFI) on CD34^+ cells obtained from T1D patients. The schematic of the experimental design is shown in (A). The 3-color coding shown in (FIG. 17B) represents lowest PD-L1 MFI values (blue), median PD-L1 MFI values (pink) and highest PD-L1 MFI values (red). (FIG. 17C-17D) Representative flow cytometric analysis and quantitative bar graph of PD-L1 expression on CD34^+ cells from T1D patients pre- and post-pharmacologic modulation with PGE2 as compared to CD34^+ cells obtained from healthy controls. (FIG. 17E) PD-L1 and CXCR4 expression (mRNA) fold change was quantified for CD34^+ cells pre- and post-modulation with PGE2. (FIG. 17F) Migration assay using CD34^+ cells pre- and post-modulation with PGE2. (FIG. 17G) Confocal imaging of CD34^+ cells pre- and post-modulation with PGE2, showing DAPI (in blue) and PD-L1 (in green) staining. 63× magnification. Scale bar, 50 (FIG. 17H) IDO-1 expression (mRNA) fold change was quantified for CD34^+ cells pre- and post-modulation with PGE2. (FIG. 17I-17J) Representative flow cytometric analysis (FIG. 17I) and quantitative bar graph (FIG. 17J) of PD-L1 expression on CD34^+ cells from T1D patients pre- and post-pharmacologic modulation with 4 small molecule PGE2 agonists. All data are expressed as mean±SEM. *P<0.05, **P<0.001. Abbreviations: MFI, mean fluorescence intensity.
Pharmacological modulation of human CD34+ cells. 1×105 of isolated human CD34+ HSPCs (purity 99%) were cultured in 200 μl of StemSpan SFEM II media (SEMCELL Technologies Inc., Cambridge, MA, USA), and each compound in the Prostaglandin Screening Library II (Cayman Chemicals, Ann Arbor, MI), was added individually at day 0 and at day 1 at a concentration of 10 μM as previously reported by the inventors and others (9, 21). In another assay, isolated CD34+ cells from freshly isolated human PBMCs or from cryopreserved PBMCs, and processed as described earlier, were cultured in the presence of a cocktail of cytokines containing: 10 μg/ml heparin (SEMCELL Technologies Inc., Cambridge, MA, USA), 10 ng/ml human SCF (Miltenyi Biotec, San Diego, CA), 20 ng/ml human TPO (Miltenyi Biotec, San Diego, CA), 10 ng/ml human FGF-1 (Miltenyi Biotec, San Diego, CA), 100 ng/ml IGFBP2 (R&D Systems, Inc., Minneapolis, MN), and 500 ng/ml Angptl3 (R&D Systems, Inc., Minneapolis, MN). PGE2 (PromoKine, PromoCell Gmbh, Germany) was added by pulsing the culture at 0, 24h, 72h and 6 days with 2 μl of diluted PGE2 (10 μM). Cells were cultured for 7 days at 37° C. in 5% CO2, and CD34+ cells were then subjected to FACS analysis and were run on a FACSCelesta™ (Becton Dickinson, Franklin Lakes, NJ). Data were analyzed using FlowJo software version 8.7.3 (Treestar, Ashland, OR). The different cytokines used here and their related concentration as well as the choice of the incubation timing was used as previously reported in the literature (22).
Prostaglandin library screening. PGE2 has been described as a small molecule known to enhance the homing and engraftment of HSPCs. It was therefore sought to screen all known types of prostaglandins using the Prostaglandin Screening Library II, which contains 64 small molecules. Each small molecule contained in the library was first screened for its capacity to upregulate PD-L1 in human CD34+ cells isolated from T1D patients (FIG. 17A-17B). CD34+ cells isolated from T1D patients were cultured in StemSpan SFEMII and pulsed with each PG (prostaglandin) small molecule contained in the aforementioned library at a concentration of 10 μM at 24 and 48h. Using FACS analysis, the MFI (mean fluorescence intensity) of PD-L1 expression was calculated following treatment with each small molecule used to modulate CD34+ cells as compared to untreated/unmodulated CD34+ cells (FIG. 17B). […]
A general note: A flow cytometer gives signals particle by particle.

As for `CCCCC(C)(C)[C@H](O)/C=C/[C@H]1[C@H](O)CC(=O)[C@@H]1C/C=C\CCCC(=O)O` [16,16-dimethyl PGE2], the “PD-L1 expression by FACS analysis” value is “robust upregulation”. Besides, the “capacity to upregulate PD-L1 (MFI) in library screening” value (10 μM, CD34+ cells from T1D patients) was “strongest capacity”.

Turning to `CCCCC[C@H](O)/C=C/[C@H]1[C@H](O)CC(=O)[C@@H]1C/C=C\CCCC(=O)O` [PGE2, prostaglandin E2], the “PD-L1 expression by FACS analysis” value is “slight increase”.

The values are drawn from patent publication US11879137B2, “Treatment of type 1 diabetes and autoimmune diseases or disorders” (THE CHILDREN'S MEDICAL CENTER CORPORATION, priority 2017, dated 2024).
